test: compounds inducing NF-kB luciferase expression – cell-based, SH-SY5Y, dose response (AID 1241); details: SH-SY5Y NF-kB promoter luciferase reporter, fold induction

SMILES	EC50 [nM]
c1cnc(SCCOc2ccc3c(c2)CCC3)nc1	8800
CCOC(=O)C1CCN(Cc2ccc(O)c3ncccc23)CC1	2510
O=C1/C(=C/c2cccs2)CCc2ccccc21	4120
Cc1ccc(NC(=O)c2scc3c2CCCC3)cc1	714
CC(=O)c1cnc2cc(-c3ccc(C)cc3)nn2c1C	3260
O=C(/C=C\Nc1cccc(F)c1)c1cccs1	347
CCOC(=O)c1cnc(Nc2nc3ccccc3o2)nc1CSC(=S)N(CC)CC	2320
O=C(COc1ccc(CO)cc1Cl)Nc1ccc(F)cc1	1600
O=[N+]([O-])c1cc(O)c2ncccc2c1	7940
O=C(Nc1ccc2c(c1)OCO2)c1ccc(Cl)s1	1800
N#C/C(=N\Nc1cccc(F)c1)C(=N)N1CCCCCC1	1640
N/C(=N\OC(=O)c1cccc(Cl)c1)c1ccccn1	1950
c1ccc(-c2ccc(-c3nc(-c4ccncc4)no3)cc2)cc1	636
CSCCNC(=O)c1ccc(C(C)(C)C)cc1	5250
Cc1cnc(C(=O)Nc2ccc3c(c2)CCC3)cn1	2450
Cc1ccc(NC(=O)c2noc3c2CCC3)cc1C	3120
Cc1occc1C(=O)N/N=C/C(Br)=C/c1ccccc1	1640
CCOC(=O)c1cnc2c(-c3ccccc3)cnn2c1N	5180
O=c1[nH]c(/C=C2\C=Nc3ccccc32)c(O)n1Cc1ccccc1F	2540
Clc1c(CSc2nc3ccccc3o2)nc2sccn12	2410
Cc1ccc(O)c(NC(=O)c2noc3c2CCCCC3)c1	9290
Oc1ccc(N=Nc2n[nH]c(-c3ccccc3)n2)cc1	3990
O=C(Nc1ccc(Cl)cc1)N1CCC(c2ccccc2)C1 (stereo not drawn)	10600
Cc1[nH]n(-c2cccc(Cl)c2)c(=O)c1C=NCc1ccco1	4940
Cc1ccc(CN=C2Nc3ccccc3CS2)cc1	1190

The remaining lines, values ahead:

EC50 [nM]	SMILES
7730	Oc1ccccc1-c1cc(-c2cccc(F)c2)n[nH]1
1190	Cc1cccc(Nc2nc(-c3ccccn3)cs2)n1
1350	O=C1C=C(Nc2ccccc2)C(=O)c2ccccc21
1490	COc1cccc(-c2nc(-c3ccccc3)no2)c1
1390	Nc1nc2ccc(-c3nc4ccccc4o3)cc2s1
389	Cc1ccc2nc(NC(=O)c3cccs3)sc2c1
4830	Cc1ccc2sc(-c3ccc(NC(=O)/C=C\C(=O)O)cc3)nc2c1
986	COc1ccc(C(=O)/C=C/Nc2cccc(O)c2)cc1
28000	Cc1cc(C)c[n+](-c2nc3ccccc3nc2C(=C=[N-])C#N)c1
1660	COc1ccc(-c2nc3ccc([N+](=O)[O-])cc3[nH]2)cc1
146	Nc1ccc(-c2nc3ccc(C(=O)O)cc3s2)cc1
4340	Fc1cccc(F)c1CSc1nc2ccccc2[nH]1
1000	CC(=O)Nc1ccc(-c2csc(Nc3cccc(C)n3)n2)cc1
1190	COc1ccc(-n2ncc3c(NCC(C)C)ncnc32)cc1
1750	COc1ccc(C(=O)/C=C2\Sc3ccccc3N2C)cc1
1020	COc1ccc(C(=O)/C=C/c2cn(CN3CCN(C)CC3)c3ccccc23)cc1
1650	Nc1ccc(-c2nc3ccc([N+](=O)[O-])cc3[nH]2)cc1
1030	CC(C)c1ccc(OCc2nc(-c3ccccn3)no2)c(Br)c1
2240	COc1ccc2nc(Nc3ccccc3OC)sc2c1
7970	O=C(c1ccccc1)c1cnc(Nc2ccccc2Cl)s1
2440	COc1ccc(-c2cc(-c3ccccc3O)[nH]n2)cc1OC
1410	Nc1cccc(-c2nc3ccccc3s2)c1
943	COc1ccc(/C=C/c2nc3ccccc3n2Cc2ccc(OC)c(OC)c2)cc1
800	COc1ccc(NC(=O)C2=Cc3ccccc3OC2)cc1
1190	O=C(Nc1nc2ccc(Cl)cc2s1)c1ccco1
1720	COc1ccc(-c2coc3cc(OC)cc(O)c3c2=O)cc1
2100	Clc1ccccc1OCc1nc(-c2ccccn2)no1
498	COc1cccc(-c2cc(C(=O)Nc3cccc(O)c3)no2)c1

Reference: PubChem BioAssay AID1241 (SRMLSC, 2008)
